For one molecule, EC50 results are on record in patent US9982006B2, “2′-chloro aminopyrimidinone and pyrimidine dione nucleosides” (Gilead Sciences, Inc., priority 2014, dated 2018).

The test system of this experiment is RSV strain A2. The experiment can be described thus: RSV cell culture EC50 determination (infectious cytopathic cell protection assay in HEp-2 cells). Type of experiment: cell-based. As to conditions: human respiratory syncytial virus, 96 h; inhibition of RSV-induced cytopathic effect in HEp-2 cells, 4 days, Cell TiterGlo readout. On the procedure:
RSV Cell Culture EC50 Determination
Antiviral activity against RSV is determined using an infectious cytopathic cell protection assay in HEp-2 cells. In this assay, compounds inhibiting viral infection and/or replication produce a cytoprotective effect against the virus-induced cell killing that can be quantified using a cell viability reagent. The techniques used here are novel adaptations of methods described in published literature (Chapman et al., Antimicrob Agents Chemother. 2007, 51(9):3346-53.)
HEp-2 cells are obtained from ATCC (Manassas, VI) and maintained in MEM media supplemented with 10% fetal bovine serum and penicillin/streptomycin. […]
For antiviral tests, HEp-2 cells are grown in large cell culture flasks to near confluency but not fully so. […] Each compound dilution is transferred in single or quadruplicate samples into dry assay plates, which are stored until assay is ready to go. […]
Subsequently, an infectious mixture is prepared using an appropriate dilution of virus stock previously determined by titration with cells at a density of 50,000/ml and 20 uL/well is added to test plates w/compounds via automation (uFlow, Biotek). […] After the incubation, a cell viability reagent, Cell TiterGlo (Promega, Madison, Wis.) is added to the assay plates, which are incubated briefly, and a luminescent readout is measured (Envision, Perkin Elmer) in all the assay plates. […]

For orientation: EC50 means the concentration needed to bring the measured effect to its halfway point.

The molecule `Nc1ccn([C@@H]2O[C@@](CO)(CCl)[C@@H](O)[C@H]2Cl)c(=O)n1` [Example 1, 4-amino-1-((2R,3R,4R,5R)-3-chloro-5-(chloromethyl)-4-hydroxy-5-(hydroxymethyl)tetrahydrofuran-2-yl)pyrimidin-2(1H)-one] showed a concentration giving a half-maximal response (EC50) greater than 50 µM.
